This test deals with SARS-CoV-2 3CLpro enzyme (Severe acute respiratory syndrome coronavirus 2, UniProt P0DTD1). Put plainly: biochemical. As to conditions: 50 µM drug, DMSO treated control = 100%, data of Figs. 2-4; for percent enzymatic activity, AVG: mean of 3 values.

Where “and” joins values, the source holds several entries; their conditions need not be identical. Equal entries are not always repeated.

For `CCOC(=O)c1c(CSc2ccccc2)n(C)c2cc(Br)c(O)c(CN(C)C)c12` [Umifenovir], the “percent enzymatic activity, individual values” is 80.6569% and 86.8613% and 87.2263%; the “percent enzymatic activity, AVG” value was 84.9148%.
On to `CC[C@@H]([C@H](C)O)n1ncn(-c2ccc(N3CCN(c4ccc(OC[C@@H]5CO[C@@](Cn6cncn6)(c6ccc(F)cc6F)C5)cc4)CC3)cc2)c1=O` [Posaconazole], for which the “percent enzymatic activity, individual values” is 84.6282% and 81.1692%; the “percent enzymatic activity, AVG” value was determined as 83.4752%.
With `CC(C)Nc1cccnc1N1CCN(C(=O)c2cc3cc(NS(C)(=O)=O)ccc3[nH]2)CC1` [Delavirdine (mesylate), Delavirdine], the “percent enzymatic activity, individual values” is 93.4344% and 97.6243% and 104.328%; the “percent enzymatic activity, AVG” value is 98.4623%.
In the case of `CCC[C@H](NC(=O)[C@@H]1[C@H]2CCC[C@H]2CN1C(=O)[C@@H](NC(=O)[C@@H](NC(=O)c1cnccn1)C1CCCCC1)C(C)(C)C)C(=O)C(=O)NC1CC1` [Telaprevir], the “percent enzymatic activity, individual values” is 64.9635% and 42.7007% and 84.6715%; the “percent enzymatic activity, AVG” value came out at 64.1119%.
Turning to `NC[C@H]1O[C@H](O[C@H]2[C@H](O[C@@H]3O[C@H](CO)[C@@H](O)[C@H]3O)[C@@H](O)[C@H](N)C[C@@H]2N)[C@H](N)[C@@H](O)[C@@H]1O` [Ribostamycin], the “percent enzymatic activity, individual values” is 96.7864% and 99.3003%; the “percent enzymatic activity, AVG” value is 98.4623%.
Consider `CC(C)(C)OC(=O)N[C@H]1CCCCC/C=C\[C@@H]2C[C@@]2(C(=O)NS(=O)(=O)C2CC2)NC(=O)[C@@H]2C[C@@H](OC(=O)N3Cc4cccc(F)c4C3)CN2C1=O` [Danoprevir], for which the “percent enzymatic activity, individual values” is 70.073% and 72.9927% and 80.6569%; the “percent enzymatic activity, AVG” value amounted to 74.5742%.
Consider `CCOC(=O)C1=C[C@@H](OC(CC)CC)[C@H](NC(C)=O)[C@@H](N)C1` [Oseltamvir Phosphate], for which the “percent enzymatic activity, individual values” was 105.843% and 84.7982% and 96.5585%; the “percent enzymatic activity, AVG” value was 95.7333%.
For the molecule `CCC(CC)COC(=O)[C@H](C)N[P@](=O)(OC[C@H]1O[C@@](C#N)(c2ccc3c(N)ncnn23)[C@H](O)[C@@H]1O)Oc1ccccc1` [Remdesivir], the “percent enzymatic activity, individual values” was 83.5766% and 41.9708% and 50.7299%; the “percent enzymatic activity, AVG” value is given as 58.7591%.
As to `O=C(O)[C@H]1C2CCC(CC2)[C@@H]1Nc1nc(-c2c[nH]c3ncc(F)cc23)ncc1F` [Pimodivir], the “percent enzymatic activity, AVG” value turned out to be 102.513%. In addition, the “percent enzymatic activity, individual values” (listed as Pimodvir) is 92.1775% and 98.4623% and 116.898%.
Regarding `CC(C)CN(C[C@@H](O)[C@H](Cc1ccccc1)NC(=O)O[C@H]1CO[C@H]2OCC[C@H]21)S(=O)(=O)c1ccc(N)cc1` [Darunavir], the “percent enzymatic activity, individual values” is 90.3226% and 93.0876% and 98.6175%; the “percent enzymatic activity, AVG” value is on record as 94.0092%.
Consider `CCC(CC)[C@H](NC(C)=O)[C@@H]1[C@H](O)[C@@H](C(=O)O)C[C@H]1N=C(N)N` [Peramivir], for which the “percent enzymatic activity, individual values” is 99.7193% and 97.2053% and 109.775%; the “percent enzymatic activity, AVG” value is listed as 102.233%.
Regarding `COc1cnc(-n2cnc(C)n2)c2[nH]cc(C(=O)C(=O)N3CCN(C(=O)c4ccccc4)CC3)c12` [Temsavir], the “percent enzymatic activity, individual values” was 93.8534% and 98.0433% and 100.976%; the “percent enzymatic activity, AVG” value is recorded as 97.6243%.
With `CC(C)c1c(C(=O)Nc2ccccc2)c(-c2ccccc2)c(-c2ccc(F)cc2)n1CC[C@@H](O)C[C@@H](O)CC(=O)O` [Atrovastatin], the “percent enzymatic activity, individual values” was 92.1569% and 107.843% and 99.0196%; the “percent enzymatic activity, AVG” value stood at 99.6732%.
Consider `CC(C)(C)NC(=O)[C@@H]1C[C@@H]2CCCC[C@@H]2CN1C[C@@H](O)[C@H](Cc1ccccc1)NC(=O)[C@H](CC(N)=O)NC(=O)c1ccc2ccccc2n1` [Saquinavir], for which the “percent enzymatic activity, individual values” is 65.8986% and 67.2811% and 76.0369%; the “percent enzymatic activity, AVG” value was found to be 69.7389%.
As for `CO[C@@H]1[C@H](OC(=O)/C=C/C=C/C=C/C=C/C(=O)O)CC[C@]2(CO2)[C@H]1[C@@]1(C)O[C@@H]1CC=C(C)C` [Fumagillin], the “percent enzymatic activity, individual values” was 70.8091% and 76.2559% and 71.647%; the “percent enzymatic activity, AVG” value is listed as 72.904%.
As for Candicidin, the “percent enzymatic activity, individual values” was 86.2745% and 80.3922% and 82.3529%; the “percent enzymatic activity, AVG” value was determined as 83.0065%.

For the origin of these results see publication PMC7817688, “Identification of 3-chymotrypsin like protease (3CLPro) inhibitors as potential anti-SARS-CoV-2 agents” (Communications Biology, 2021).
